# Measured values as given in ChEMBL document CHEMBL1811886 (J Med Chem, 2011).
# Columns and labels:
# Histamine H3 receptor [1] = target: T1, Histamine H3 receptor (Rattus norvegicus, UniProt Q9QYN8); experiment: Displacement of [3H]NAMH from rat histamine H3 receptor expressed in CHO cells; format: cell-based
# [2] = Oral bioavailability in fasted Sprague-Dawley rat at 5 mg/kg after 6 hrs by LC-MS/MS analysis; format: ADME, organism-based; conditions: in vivo
# Histamine H3 receptor [3] = target: T2, Histamine H3 receptor (Homo sapiens, UniProt Q9Y5N1); experiment: Displacement of [3H]NAMH from human histamine H3 receptor expressed in CHO cells; format: cell-based
# T2 sequence (Q9Y5N1 whole entry): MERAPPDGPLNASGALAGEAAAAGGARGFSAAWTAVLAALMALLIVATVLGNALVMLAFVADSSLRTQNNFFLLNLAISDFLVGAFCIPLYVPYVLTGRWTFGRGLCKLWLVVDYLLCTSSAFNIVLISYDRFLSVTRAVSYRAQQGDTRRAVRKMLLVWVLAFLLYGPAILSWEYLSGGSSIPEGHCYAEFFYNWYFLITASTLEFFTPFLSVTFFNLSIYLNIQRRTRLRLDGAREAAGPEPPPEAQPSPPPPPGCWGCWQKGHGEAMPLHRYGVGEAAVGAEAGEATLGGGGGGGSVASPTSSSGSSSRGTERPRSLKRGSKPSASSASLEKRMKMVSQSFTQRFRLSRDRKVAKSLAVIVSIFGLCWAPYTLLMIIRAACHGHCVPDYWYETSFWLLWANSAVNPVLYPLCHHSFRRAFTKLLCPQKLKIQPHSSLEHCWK
# [4] = Terminal half life in fasted Sprague-Dawley rat at 1 mg/kg, iv after 6 to 24 hrs by LC-MS/MS analysis; format: ADME, organism-based; design: dose 1 mg/kg, route intravenous; conditions: in vivo, read-out: beta t1/2 (converted)
# [5] = Systemic clearance in fasted Sprague-Dawley rat at 1 mg/kg, iv after 6 to 24 hrs by LC-MS/MS analysis; format: ADME, organism-based; design: dose 1 mg/kg, route intravenous; conditions: in vivo
# [6] = Ratio of drug uptake in brain to plasma of fasted Sprague-Dawley rat at 1 mg/kg, iv after 6 to 24 hrs by LC-MS/MS analysis; format: ADME, organism-based; design: dose 1 mg/kg, route intravenous; conditions: read-out: BPR
# Histamine H3 receptor [7] = target: T2, Histamine H3 receptor; experiment: Antagonist activity against human histamine H3 receptor assessed as inhibition of R-alpha-methylhistamine induced [35S]GTPgammaS binding; format: functional
# Histamine H3 receptor [8] = target: T1, Histamine H3 receptor; experiment: Inverse agonist activity at rat histamine H3 receptor assessed as inhibition of R-alpha-methylhistamine induced [35S]GTPgammaS binding; format: functional
# [9] = target: Voltage-gated inwardly rectifying potassium channel KCNH2 (Homo sapiens, UniProt Q12809); experiment: Inhibition of recombinant human ERG channel expressed in human HEK 293 cells by patch clamp assay; format: cell-based, HEK293
# Sequence of Voltage-gated inwardly rectifying potassium channel KCNH2 (Q12809 whole entry): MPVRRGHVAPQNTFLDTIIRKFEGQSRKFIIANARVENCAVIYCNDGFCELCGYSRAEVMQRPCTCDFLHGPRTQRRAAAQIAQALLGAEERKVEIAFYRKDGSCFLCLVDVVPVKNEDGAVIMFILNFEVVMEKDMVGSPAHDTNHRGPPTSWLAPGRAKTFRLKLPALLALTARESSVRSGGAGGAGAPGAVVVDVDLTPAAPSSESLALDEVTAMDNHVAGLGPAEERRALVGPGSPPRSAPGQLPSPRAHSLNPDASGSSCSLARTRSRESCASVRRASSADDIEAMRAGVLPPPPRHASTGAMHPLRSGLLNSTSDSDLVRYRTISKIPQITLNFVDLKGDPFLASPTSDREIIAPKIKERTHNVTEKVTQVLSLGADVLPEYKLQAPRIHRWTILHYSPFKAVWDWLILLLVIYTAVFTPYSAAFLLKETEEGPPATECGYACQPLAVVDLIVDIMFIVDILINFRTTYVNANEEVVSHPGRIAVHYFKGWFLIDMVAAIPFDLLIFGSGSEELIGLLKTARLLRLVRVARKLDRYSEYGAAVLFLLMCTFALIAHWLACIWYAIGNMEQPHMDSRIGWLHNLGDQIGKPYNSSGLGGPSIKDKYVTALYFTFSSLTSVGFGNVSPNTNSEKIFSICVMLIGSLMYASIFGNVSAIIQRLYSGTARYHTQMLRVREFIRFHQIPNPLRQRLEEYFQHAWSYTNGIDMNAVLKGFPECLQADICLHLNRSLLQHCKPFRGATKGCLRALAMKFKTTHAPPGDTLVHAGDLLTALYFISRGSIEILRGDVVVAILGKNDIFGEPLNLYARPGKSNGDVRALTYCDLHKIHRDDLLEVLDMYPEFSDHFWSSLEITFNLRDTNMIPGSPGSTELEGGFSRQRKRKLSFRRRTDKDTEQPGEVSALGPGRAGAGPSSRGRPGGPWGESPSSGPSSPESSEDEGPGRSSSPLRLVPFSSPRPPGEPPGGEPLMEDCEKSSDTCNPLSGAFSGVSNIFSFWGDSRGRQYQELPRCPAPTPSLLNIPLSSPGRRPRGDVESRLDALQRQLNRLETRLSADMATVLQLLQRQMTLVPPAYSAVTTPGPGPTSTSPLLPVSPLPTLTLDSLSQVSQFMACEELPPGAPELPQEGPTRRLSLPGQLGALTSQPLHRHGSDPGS
# [10] = Oral bioavailability in fasted Sprague-Dawley rat at 10 mg/kg after 24 hrs by LC-MS/MS analysis; format: ADME, organism-based; conditions: in vivo
# Rattus norvegicus = experiment: Inhibition of RAMH-induced dipsogenia in Long Evans rat administered as po 15 mins prior to RAMH challenge; format: functional
# Histamine H3 receptor [11] = target: T2, Histamine H3 receptor; experiment: Inverse agonist activity at human histamine H3 receptor assessed as inhibition of R-alpha-methylhistamine induced [35S]GTPgammaS binding; format: functional
# [12] = Bioavailability in fasted Sprague-Dawley rat at 1 mg/kg, iv after 6 to 24 hrs by LC-MS/MS analysis; format: ADME, organism-based; conditions: in vivo
# T1 sequence (Q9QYN8 whole entry): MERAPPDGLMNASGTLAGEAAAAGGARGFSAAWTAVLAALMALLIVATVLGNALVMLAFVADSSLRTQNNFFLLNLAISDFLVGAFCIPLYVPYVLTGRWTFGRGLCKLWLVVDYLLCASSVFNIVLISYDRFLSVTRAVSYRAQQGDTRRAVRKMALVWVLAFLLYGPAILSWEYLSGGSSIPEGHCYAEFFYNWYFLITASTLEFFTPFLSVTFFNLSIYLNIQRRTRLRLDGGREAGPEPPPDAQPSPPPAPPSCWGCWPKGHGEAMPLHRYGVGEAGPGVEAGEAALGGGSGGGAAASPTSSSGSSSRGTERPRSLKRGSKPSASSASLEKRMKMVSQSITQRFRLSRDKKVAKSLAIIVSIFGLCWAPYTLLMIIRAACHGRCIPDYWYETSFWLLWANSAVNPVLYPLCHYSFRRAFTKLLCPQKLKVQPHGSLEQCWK
Ki (Histamine H3 receptor [1]) [nM],bioavailability [2] [%],Ki (Histamine H3 receptor [3]) [nM],half-life [4] [h],clearance [5] [mL/min/kg],Kp [6],Kb (Histamine H3 receptor [7]) [nM],EC50 (Histamine H3 receptor [8]) [nM],bioavailability [10] [%],EC50 (Histamine H3 receptor [11]) [nM],bioavailability [12] [%],Structure (SMILES),IC50 [9] [nM],ED50 (Rattus norvegicus) [mg/kg]
11,18,3.9,0.4,238,1.5,–,–,–,–,–,CCn1nc(-c2ccc(OCCCN3CCC[C@H]3C)cc2)ccc1=O,–,–
37,11,8.7,0.9,4.9,1.9,–,–,–,–,–,O=c1ccc(-c2ccc(OCCCN3CCCCC3)cc2)n[nH]1,–,–
106,22,21,1.2,50,5.3,–,–,–,–,–,Cn1nc(-c2ccc(OCCCN3CCCCC3)cc2)ccc1=O,–,–
8.5,–,2.8,1,9.6,1.8,0.4,2.1,24,1.1,–,C[C@@H]1CCCN1CCCOc1ccc(-c2cn[nH]c(=O)c2)cc1,9500,0.03
7.9,10,2.5,2.1,11.7,6.2,–,–,–,–,–,C[C@@H]1CCCN1CCCOc1ccc(-c2ccc(=O)n(-c3ccccc3)n2)cc1,–,–
–,–,–,1.5,39,32,–,–,–,–,> 18,C[C@@H]1CCCN1CCc1cc2cc(-c3ccc(C#N)cc3)ccc2o1,–,–
347,–,82,–,–,–,–,–,–,–,–,C[C@@H]1CCCN1CCCOc1ccc(-n2ncccc2=O)cc1,–,–
48,43,–,1,90,1.4,–,–,–,–,–,Cn1nc(-c2ccc(OCCCN3CCC[C@H]3CO)cc2)ccc1=O,–,–
